In general, log P refers to the decadic logarithm of the partition coefficient of the neutral form, usually between octanol and water. By logP is commonly meant a log measure of how a compound divides between an organic and an aqueous phase. A higher logP goes with a more lipophilic compound.

The nature of series [1]: In vitro metabolism assay (S9 fraction of human liver microsomes). It counts as in vitro ADME. On the procedure:
To further explore the metabolic stability of compounds 25, 26, and 60 in a biologically relevant model, they were tested in an in vitro metabolism assay (S9 fraction of human liver microsomes) using retigabine as a comparator.[33],[34] In this assay, a very small extent (4.7 ± 0.5%) of retigabine undergoes phase I metabolism, whereas a larger fraction (17.4 ± 1.2%) was metabolized in phase II reactions, as previously reported.[35]

Series [2] has as its target T1, Kv7.2 S303A channels (Homo sapiens, UniProt O43526, S303A).
T1 construct: expressed in transfected cells; host or cells: CHO cells, transient transfection (pcDNA3.1)
The series is described as follows: Whole-cell patch-clamp on homomeric Kv7.2 S303A mutant channels. Type of series: cell-based. To be noted: 10 μM RET or 1 μM 60. An excerpt: Current scale, 200 pA; time scale, 200 ms. (B,C) Dose–response curves reporting the effects of the 3 indicated compounds on the V1/2 shift (ΔV1/2) in mV (B) and on maximal current density (Idrug/Icontrol; C) calculated at +20 mV for Kv7.2/Kv7.3 channels.
Channel subunits were expressed in Chinese hamster ovary (CHO) cells by transient transfection, using plasmids containing cDNAs encoding human Kv7.2 and/or Kv7.3, all cloned in the pcDNA3.1 vector. According to the experimental protocol, these plasmids were expressed individually or in combination, together with a plasmid-expressing enhanced green fluorescent protein (Clontech, Palo Alto, CA) used as a transfection marker. Total cDNA in the transfection mixture was kept at 4 μg. CHO cells were grown in 100 mm plastic Petri dishes in Dulbecco’s modified Eagle’s medium containing 10% fetal bovine serum, nonessential amino acids (0.1 mM), penicillin (50 U/mL), and streptomycin ([…]) in a humidified atmosphere at 37 °C with 5% CO2.
Currents from CHO cells were recorded at room temperature (20–22 °C) using the whole-cell configuration of the patch-clamp technique, with glass micropipettes of 3–5 MΩ resistance. During the recording, constant perfusion of extracellular solution was maintained. […] The pipette (intracellular) solution contained (in mM): 140 KCl, 2 MgCl2, 10 EGTA, 10 HEPES, 5 Mg^2+-ATP, at pH 7.3–7.4, with KOH. […]
Background: In patch-clamp work, channel activity is measured electrically.

Series [3] concerns PTZ-induced seizures. The series is described as follows: Pentylenetetrazol (PTZ)-induced acute seizures in mice. To be noted: for Seizure score (Lüttjohann's scale): 30 min before PTZ 100 mg/kg s.c.; for Latency to maximal seizures: 30 min before PTZ; for Survival rate in PTZ seizure model: end of 60 min observation; for Minimum effective dose: i.p., PTZ model. Type of series: in vivo, C57Bl/6 mice. On the procedure:
A subcutaneous (s.c.) injection of 100 mg/kg PTZ in mice is able to trigger convulsive behavior whose intensity can be assessed and quantified according to the revised Lüttjohann’s scale (see Materials and Methods),[40] using a 9-point severity score ranging from 0 (whisker trembling) to 8 (wild jumping). For each animal, the maximal severity score (Figure 5A) and the time latency required to reach such values (Figure 5B) were recorded.
Food and water were available ad libitum. Animals were experimentally naive and were used only once.
Thus, each dose was dissolved to allow injection of 0.01 mL/g, i.p. The control group was represented by mice injected only with vehicle solution (saline containing 2% Tween-20 and 2% PEG-400).
PTZ was injected, and animals were placed in clear Plexiglass boxes for observation of seizure activity. The severity of convulsions (from minimal “clonic” to maximal “generalized tonic–clonic”) as well as the latency to onset of maximal seizure was recorded.
0 = whisker trembling, 1 = sudden behavioral arrest, 2 = facial jerking, 3 = neck jerks, 4 = clonic seizures (sitting), 5 = tonic clonic seizures (lying on belly), 6 = clonic seizures (lying on side), 7 = tonic clonic seizures (lying on side), 8 = wild jumping. The behavioral assessments described above were performed in a blind manner and the observers had to reach a unanimous agreement regarding the scoring of the behavior.
The number of animals needed for the experiment was determined using the power analysis software GPower version 3.1.92. The required minimum sample size was 8 mice per group. Statistical analyses were performed using GraphPad Prism (GraphPad Software, LaJolla, CA) using a one-way analysis of variance with the Tukey post-hoc test. The P value of <0.05 was accepted as indicative of a statistically significant difference.

A short description of series [4]: Lipophilicity (log P).
Setting [5] is: S9 fraction of human liver microsomes.
The mark [6] stands for this setting: 3 mg/kg i.p., listed as Retigabine.

Several values for one entry are separate records, joined by “and”; a condition that tells them apart may be missing. Equal values may be shown once.

With `CCOC(=O)Nc1ccc(NCc2ccc(F)cc2)cc1N` [RET, retigabine], in series [1] (setting [5]), the “Phase I turnover metabolism” value is 4.7 ± 0.5% and the “Phase II turnover metabolism” value turned out to be 17.4 ± 1.2%. The “Kv7 opening ability in S303A channels” value in series [2] was “slightly but significantly reduced”. Also, in series [3] (1 mg/kg i.p.), the “Seizure score (Lüttjohann's scale)” value stood at 6.9 ± 0.3. In series [3] (3 mg/kg i.p.), the “Latency to maximal seizures” value is 1041.4±223.2 (at 3 mg/Kg) s, the “Seizure score (Lüttjohann's scale)” value was 7.3±0.3 (at 3 mg/Kg) and the “Survival rate in PTZ seizure model” value is reported as 40% (at 3 mg/Kg). In series [3] (setting [6]), the “Seizure score (Lüttjohann's scale)” value is reported as 7.3 ± 0.3 and the “Latency to maximal seizures” value was 1041.4 ± 223.2 s. Besides, the “Survival rate in PTZ seizure model” value in series [3] (3 mg/kg i.p., listed as retigabine) worked out at 40%. In series [3], this molecule displayed a Minimum effective dose of 3 mg/kg. For the same molecule, the log partition coefficient (log P) in series [4] (method not stated) was 3.08.

Take `CC(C)(C)CC(=O)Nc1ccc(NCc2ccc(C(F)(F)F)cc2)c(F)c1N` [compound 60, N-(2-Amino-3-fluoro-4-((4-(trifluoromethyl)benzyl)amino)phenyl)-3,3-dimethylbutanamide]: in series [1] (human), the “Phase I turnover metabolism” value was 8.2 ± 2.7% and the “Phase II turnover metabolism” value was determined as 15.6 ± 0.3%. The “Kv7 opening ability in S303A channels” value in series [2] is “slightly but significantly reduced”. Besides, the “Latency to maximal seizures” value in series [3] (0.3 mg/kg i.p.) is 1159.7 ± 169.4 s and 1159.7±169.4 (at 0.3 mg/Kg) s. The “Animals surviving in PTZ seizure model” value in series [3] (1 mg/kg i.p., surviving/treated animals) is 8/8. Also, in series [3] (compound 60 with XE991 3 mg/kg i.p. pretreatment), the “Survival rate in PTZ seizure model after XE991 pretreatment” value is given as 75%. This molecule also returned a Minimum effective dose in series [3] of 0.3 mg/kg. In series [4], this molecule gave a logP of 4.74.

Source of the values: paper PMC9421656, “Beyond Retigabine: Design, Synthesis, and Pharmacological Characterization of a Potent and Chemically Stable Neuronal Kv7 Channel Activator with Anticonvulsant Activity” (Journal of Medicinal Chemistry, 2022).
